Source: ChEMBL document CHEMBL5356991, “Naphthyl bearing 1,3,4-thiadiazoleacetamides targeting the parasitic folate pathway as anti-infectious agents: in silico, synthesis, and biological approach” (RSC Med Chem, 2023)

What was measured:
[1] = Hemolytic activity in human RBC assessed as hemolysis at 12.5 uM incubated for 1 hr by spectrophotometric analysis relative to control; assay type: toxicity, cell-based, Erythrocyte; details: human red blood cells (erythrocytes), read-out: Activity
[2] = Safety index, ratio of IC50 for antimalarial activity against chloroquine-sensitive Plasmodium falciparum NF54 to IC50 for cytotoxicity against human HEK293 cells; assay type: toxicity, cell-based; details: HEK293 cells versus Plasmodium falciparum NF54, read-out: Ratio IC50
Plasmodium falciparum [3] = assay: Antimalarial activity against chloroquine-resistant Plasmodium falciparum W2 assessed as parasite growth inhibition incubated for 72 hrs by Malstat reagent based LDH assay; assay type: functional, organism-based; details: W2, 72 h
[4] = Cytotoxicity against human HEK293 cells assessed as cell growth at 50 uM incubated for 48 hrs by MTT assay relative to control; assay type: toxicity, cell-based; details: read-out: Activity
Leishmania donovani = assay: Antileishmanial activity against promastigote stage of Leishmania donovani assessed as parasite growth inhibition incubated for 24 hrs by MTT assay; assay type: functional, organism-based
Plasmodium falciparum [5] = assay: Antimalarial activity against chloroquine-sensitive Plasmodium falciparum NF54 assessed as parasite growth inhibition incubated for 72 hrs by Malstat reagent based LDH assay; assay type: functional, organism-based; details: NF54, 72 h
[6] = Cytotoxicity against human HEK293 cells incubated for 48 hrs by MTT assay; assay type: toxicity, cell-based
Erythrocyte [7] = assay: Hemolytic activity in human RBC assessed as hemolysis at 200 uM incubated for 1 hr by spectrophotometric analysis; assay type: toxicity, cell-based
[8] = Selectivity index, ratio of IC50 for cytotoxicity against African green monkey Vero cells to IC50 for inhibition of bovine liver DHFR
Plasmodium falciparum [9] = assay: Resistance index, ratio of IC50 for antimalarial activity against chloroquine-resistant Plasmodium falciparum W2 to IC50 for antimalarial activity against chloroquine-sensitive Plasmodium falciparum NF54; assay type: functional
Dihydrofolate reductase = target: T1, Dihydrofolate reductase (Bos taurus, UniProt P00376); assay: Inhibition of bovine liver DHFR incubated for 12 mins in presence of NADPH
T1 sequence (P00376 whole entry): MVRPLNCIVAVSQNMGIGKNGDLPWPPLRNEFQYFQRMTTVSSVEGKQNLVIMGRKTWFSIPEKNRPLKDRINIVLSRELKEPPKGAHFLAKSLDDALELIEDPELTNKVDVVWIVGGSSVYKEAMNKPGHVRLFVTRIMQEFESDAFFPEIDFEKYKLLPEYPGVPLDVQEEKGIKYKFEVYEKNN

Vero = assay: Cytotoxicity against African green monkey Vero cells upto 1000 uM; assay type: toxicity, cell-based; details: chlorocebus sabaeus
Erythrocyte [10] = assay: Hemolytic activity in human RBC assessed as hemolysis at 12.5 to 200 uM incubated for 1 hr by spectrophotometric analysis; assay type: toxicity, cell-based; details: dose 12.5-200 µM

SMILES	hemolysis at 1 h, 12.5 µM [1] [%]	selectivity ratio [2]	IC50 (Plasmodium falciparum [3]) [µM]	viability at 48 h, 50 µM [4] [%]	IC50 (Leishmania donovani) [µM]	IC50 (Plasmodium falciparum [5]) [µM]	IC50 at 48 h [6] [µM]	Activity (Erythrocyte [7])	Ratio IC50 [8]	Ratio IC50 (Plasmodium falciparum [9])	IC50 (Dihydrofolate reductase) [µM]	Activity (Vero)	Activity (Erythrocyte [10])
O=C(CN1CCN(c2cc(N3CCOCC3)ncn2)CC1)Nc1nnc(COc2ccc3ccccc3c2)s1	< 10	0.82	> 10	87.4	6.61	61.3							
O=C(CN1CCN(c2ccnc3cc(Cl)ccc23)CC1)Nc1nnc(COc2ccc3ccccc3c2)s1	< 10	9.44	3.92	43.3	7.2	3.93	70.4	Toxic	340.518	0.99	2.94	Non-Toxic	
CCN(CC)CCCC(C)Nc1ccnc2cc(Cl)ccc12 (stereo unspecified) [CHLOROQUINE]				58.5			17.2						Toxic
O=C(CN1CCCCC1)Nc1nnc(COc2ccc3ccccc3c2)s1	< 10	2.33	> 10	86.9	6.71	21.5		Toxic					
O=C(CN1CCN(c2ccccc2O)CC1)Nc1nnc(COc2ccc3ccccc3c2)s1	< 10	14.4	> 10	92.9	4.34	3.47		Toxic	400.881		2.5	Non-Toxic	
O=C(CN1CCN(C(c2ccccc2)c2ccccc2)CC1)Nc1nnc(COc2ccc3ccccc3c2)s1	< 10	53.2	> 10	94.4	3.55	0.94		Toxic	535.245		1.87	Non-Toxic	
C=C[C@H]1CN2CC[C@H]1C[C@H]2[C@H](O)c1ccnc2ccc(OC)cc12 [QUININE]						0.108							
Cc1ccc(N2CCN(CC(=O)Nc3nnc(COc4ccc5ccccc5c4)s3)CC2)cc1	< 10	0.79	> 10	66.4	6.19	63.7							
COc1ccc(N2CCN(CC(=O)Nc3nnc(COc4ccc5ccccc5c4)s3)CC2)cc1	< 10	0.25	> 10	58	5.53	> 200							
O=C(CN1CCOCC1)Nc1nnc(COc2ccc3ccccc3c2)s1	< 10	6.54	> 10	70	5.94	10.7							
CN1CCN(CC(=O)Nc2nnc(COc3ccc4ccccc4c3)s2)CC1	< 10	8.85	> 10	42.8	7.09	7.83	69.2						
CCOC(=O)c1cnc2ccccc2c1N1CCN(CC(=O)Nc2nnc(COc3ccc4ccccc4c3)s2)CC1	< 10	1.73	> 10	59.8	5.32	28.9							
CCCCCCCCCCCCCCCCOP(=O)([O-])OCC[N+](C)(C)C [MILTEFOSINE]					0.19								
